# Measured values published in US20250144067A1, “PERSONALIZED STARVATION THERAPY FOR CANCER” (Faeth Therapeutics, Inc., priority 2021, published 2025).
# Where a name gives a salt, the structure may show the parent alone. Read-outs that look alike come from different tables or passages of the source.
# What was measured:
# [1] = system: NCI-H292 lung cancer cells; experiment: FDA drug screening, complete media vs cholesterol-free media without statin (TABLE 1); assay type: cell-based, human
# [2] = system: NCI-H292 lung cancer cells; experiment: FDA drug screening, complete media vs cholesterol-free media with simvastatin (TABLE 2); assay type: cell-based, human
# [3] = Complete minus Cholesterol-free, greater than 0 enhanced anti-cancer activity, about 0 neutral, below 0 antagonist
# [4] = NCI-H292 cells, FDA drug library screen, cholesterol-free media without statin
# [5] = NCI-H292 cells, FDA drug library screen, complete media
# [6] = NCI-H292 cells, cholesterol-free media with simvastatin 0.04 μM, FDA drug library screen (TABLE 2)
# [7] = NCI-H292 cells, complete media, FDA drug library screen (TABLE 2)
# [8] = complete media minus cholesterol-free media + simvastatin (0.04 μM), >0 enhanced anti-cancer activity, about 0 neutral, <0 antagonist
# [9] = Complete minus Cholesterol-free, >0 enhanced anti-cancer activity, about 0 neutral, <0 antagonist
# [10] = NCI-H292 cells, cholesterol-free media without statin
# [11] = NCI-H292 cells, cholesterol-free media with simvastatin 0.04 μM, cell growth value in FDA drug screen
# [12] = NCI-H292 cells, complete media, cell growth value in FDA drug screen
# [13] = complete media minus cholesterol-free media + simvastatin, >0 enhanced anti-cancer activity, about 0 neutral, <0 antagonist
# [14] = NCI-H292 cells, drug in cholesterol-free media with simvastatin 0.04 μM
# [15] = NCI-H292 cells, drug in complete media
# [16] = complete media vs cholesterol-free media + simvastatin (0.04 μM), >0 enhanced anti-cancer activity, about 0 neutral, <0 antagonist
# [17] = Complete minus Cholesterol-free, […]
# [18] = complete media vs cholesterol-free media + simvastatin (0.04 μM), […]
# [19] = NCI-H292 cells, cholesterol-free media without statin, FDA drug library screen
# [20] = NCI-H292 cells, complete media, FDA drug library screen
# [21] = complete vs cholesterol-free media, >0 enhanced anti-cancer activity, about 0 neutral, <0 antagonist
# [22] = NCI-H292 cells, FDA drug library screen, cholesterol-free media with simvastatin 0.04 μM
# [23] = complete media minus cholesterol-free media + simvastatin (0.04 μM), […]
# [24] = complete media minus cholesterol-free media + simvastatin, […]
# [25] = complete vs cholesterol-free media, greater than 0 enhanced anti-cancer activity, about 0 neutral, below 0 antagonists
# [26] = NCI-H292 cells, FDA library drug in cholesterol-free media with simvastatin 0.04 μM
# [27] = NCI-H292 cells, FDA library drug in complete media
molecule,measurement,setting,value
Cc1cc(S(=O)(=O)O)c2c(C)ccc(C(C)C)cc1-2 [Sodium gualenate],Difference,[1]; [3],−0.12
same,Cholesterol-free,[1]; [4],0.9704
same,Complete,[1]; [5],0.8542
same,Cholesterol-free media + simvastatin (0.04 μM),[2]; [6],0.8796
same,Complete Media,[2]; [7],0.8094
same,Difference,[2]; [8],−0.07
COC(=O)c1ccc2c(c1)NC(=O)/C2=C(\Nc1ccc(N(C)C(=O)CN2CCN(C)CC2)cc1)c1ccccc1 [Nintedanib],Difference,[1]; [3],−0.17
same,Cholesterol-free,[1]; [4],0.7067
same,Complete,[1]; [5],0.5362
same,Cholesterol-free media + simvastatin (0.04 μM),[2]; [6],0.7141
same,Complete Media,[2]; [7],0.7297
same,Difference,[2]; [8],0.02
C[C@@H]1C[C@H]2[C@@H]3CCC4=CC(=O)C=C[C@]4(C)[C@@]3(Cl)[C@@H](O)C[C@]2(C)[C@@]1(OC(=O)c1ccco1)C(=O)CCl [Mometasone furoate],Difference,[1]; [9],−0.24
same,Cholesterol-free,[1]; [10],0.8128
same,Complete,"[1]; NCI-H292 cells, complete media",0.5699
same,Cholesterol-free media + simvastatin (0.04 μM),[2]; [11],0.7611
same,Complete Media,[2]; [12],0.8877
same,Difference,[2]; [13],0.13
CC1(C)O[C@@H]2C[C@H]3[C@@H]4CCC5=CC(=O)CC[C@]5(C)[C@@]4(F)[C@@H](O)C[C@]3(C)[C@]2(C(=O)CCl)O1 [Halcinonide],Difference,[1]; [3],−0.18
same,Cholesterol-free,[1]; [4],0.895
same,Complete,[1]; [5],0.7117
same,Cholesterol-free media + simvastatin (0.04 μM),[2]; [11],0.5751
same,Complete Media,[2]; [12],0.6822
same,Difference,[2]; [13],0.11
O=C1c2cccc(O)c2C(=O)c2c(O)cccc21 [Danthron],Difference,[1]; [3],−0.15
same,Cholesterol-free,[1]; [4],0.9427
same,Complete,[1]; [5],0.7921
same,Cholesterol-free media + simvastatin (0.04 μM),[2]; [14],1.634
same,Complete Media,[2]; [15],1.469
same,Difference,[2]; [16],−0.16
CC(=O)Nc1ccc(C(=O)O)cc1.CC(=O)Nc1ccc(C(=O)O)cc1.CC(=O)Nc1ccc(C(=O)O)cc1.CC(O)CN(C)C.CC(O)CN(C)C.CC(O)CN(C)C.O=c1[nH]cnc2c1ncn2[C@@H]1O[C@H](CO)[C@@H](O)[C@H]1O [Inosine pranobex],Difference,[1]; [17],−0.24
same,Cholesterol-free,[1]; [10],1.096
same,Complete,"[1]; NCI-H292 cells, complete media",0.8599
same,Cholesterol-free media + simvastatin (0.04 μM),[2]; [14],1.233
same,Complete Media,[2]; [15],0.9799
same,Difference,[2]; [18],−0.25
N=C(N)NC(=O)Cc1c(Cl)cccc1Cl [Guanfacine (hydrochloride)],Cholesterol-free,[1]; [19],0.9809
same,Complete,[1]; [20],1.601
same,Difference,[1]; [21],0.62
same,Cholesterol-free media + simvastatin (0.04 μM),[2]; [22],1.401
same,Complete Media,[2]; [5],1.965
same,Difference,[2]; [13],0.56
Cc1cc2c(s1)Nc1ccccc1N=C2N1CCN(C)CC1 [Olanzapine],Cholesterol-free,[1],0.9635
same,Complete,[1],0.9217
same,Difference,[1],−0.04
same,Cholesterol-free media + simvastatin (0.04 μM),[2],1.722
same,Complete Media,[2],1.489
same,Difference,[2],−0.23
CNC(=O)c1cc(Oc2ccc(NC(=O)Nc3ccc(Cl)c(C(F)(F)F)c3)c(F)c2)ccn1 [Regorafenib],Difference,[1]; [3],−0.09
same,Cholesterol-free,[1]; [4],0.6924
same,Complete,[1]; [5],0.601
same,Cholesterol-free media + simvastatin (0.04 μM),[2]; [14],1.071
same,Complete Media,[2]; [15],0.8585
same,Difference,[2]; [16],−0.21
C[C@H](CSC(=O)c1ccccc1)C(=O)N1C[C@@H](Sc2ccccc2)C[C@H]1C(=O)O [Zofenopril (calcium)],Difference,[1]; [17],−0.03
same,Cholesterol-free,[1]; [19],1.281
same,Complete,[1]; [20],1.25
same,Cholesterol-free media + simvastatin (0.04 μM),[2]; [6],0.8443
same,Complete Media,[2]; [7],0.8399
same,Difference,[2]; [23],0.00
CC(C)(C)c1cc(NC(=O)Nc2ccc(-c3cn4c(n3)sc3cc(OCCN5CCOCC5)ccc34)cc2)no1 [Quizartinib],Cholesterol-free,[1]; [19],0.663
same,Complete,[1]; [20],0.7657
same,Difference,[1]; [21],0.10
same,Cholesterol-free media + simvastatin (0.04 μM),[2]; [14],1.022
same,Complete Media,[2]; [15],0.8076
same,Difference,[2]; [16],−0.21
Cc1ccccc1-n1c(CF)nc2ccc(N)cc2c1=O [Afloqualone],Difference,[1]; [17],0.04
same,Cholesterol-free,[1]; [19],1.063
same,Complete,[1]; [20],1.104
same,Cholesterol-free media + simvastatin (0.04 μM),[2]; [22],1.16
same,Complete Media,[2]; [5],1.332
same,Difference,[2]; [24],0.17
Nc1ccc(S(=O)(=O)NC(=O)c2ccccc2)cc1 [Sulfabenzamide],Cholesterol-free,[1]; [10],1.412
same,Complete,"[1]; NCI-H292 cells, complete media",1.023
same,Difference,[1]; [25],−0.39
same,Cholesterol-free media + simvastatin (0.04 μM),[2]; [14],1.231
same,Complete Media,[2]; [15],1.041
same,Difference,[2]; [16],−0.19
Oc1cccc(-c2c3nc(c(-c4cccc(O)c4)c4ccc([nH]4)c(-c4cccc(O)c4)c4nc(c(-c5cccc(O)c5)c5ccc2[nH]5)CC4)C=C3)c1 [Temoporfin],Difference,[1]; [3],−0.10
same,Cholesterol-free,[1]; [4],0.848
same,Complete,[1]; [5],0.7514
same,Cholesterol-free media + simvastatin (0.04 μM),[2]; [22],0.6286
same,Complete Media,[2]; [5],0.9208
same,Difference,[2]; [13],0.29
O=C(O)c1ccc2nc(-c3cc(Cl)cc(Cl)c3)oc2c1 [Tafamidis],Cholesterol-free,[1]; [19],0.399
same,Complete,[1]; [20],0.8565
same,Difference,[1]; [21],0.46
same,Cholesterol-free media + simvastatin (0.04 μM),[2]; [26],1.307
same,Complete Media,[2]; [27],0.9388
same,Difference,[2]; [16],−0.37
O=C(O)Cc1ccccc1Nc1c(Cl)cccc1Cl [Diclofenac (diethylamine)],Cholesterol-free,[1]; [19],0.7838
same,Difference,[1]; [21],0.36
same,Cholesterol-free media + simvastatin (0.04 μM),[2]; [6],0.9893
same,Complete Media,[2]; [7],0.9206
same,Difference,[2]; [8],−0.07
CNS(=O)(=O)CCc1ccc2[nH]cc(C3CCN(C)CC3)c2c1 [Naratriptan (hydrochloride)],Difference,[1]; [3],−0.17
same,Cholesterol-free,[1]; [4],1.077
same,Complete,[1]; [5],0.9077
same,Cholesterol-free media + simvastatin (0.04 μM),[2]; [14],1.179
same,Complete Media,[2]; [15],0.9588
same,Difference,[2]; [16],−0.22
CCCN1CC(NS(=O)(=O)N(CC)CC)CC2Cc3c(O)cccc3CC21 (centres unmarked) [Quinagolide (hydrochloride)],Difference,[1]; [3],−0.15
same,Cholesterol-free,[1]; [4],1.129
same,Complete,[1]; [5],0.9753
same,Cholesterol-free media + simvastatin (0.04 μM),[2]; [11],0.9283
same,Complete Media,[2]; [12],1.019
same,Difference,[2]; [13],0.09
Nc1cccc2c1C(=O)N(C1CCC(=O)NC1=O)C2=O (centres unmarked) [Pomalidomide],Difference,[1]; [9],−0.27
same,Cholesterol-free,[1]; [10],1.37
same,Complete,"[1]; NCI-H292 cells, complete media",1.095
same,Cholesterol-free media + simvastatin (0.04 μM),[2]; [6],1.093
same,Complete Media,[2]; [7],1.03
same,Difference,[2]; [8],−0.06
Oseltamivir (phosphate),Difference,[1]; [17],−0.16
same,Cholesterol-free,[1]; [4],1.28
same,Complete,[1]; [5],1.117
same,Cholesterol-free media + simvastatin (0.04 μM),"[2]; NCI-H292 cells, cholesterol-free media with simvastatin 0.04 μM, […]",0.8277
same,Complete Media,"[2]; NCI-H292 cells, complete media, […]",0.8627
same,Difference,[2]; [24],0.04
Hemin,Difference,[1]; [17],−0.04
same,Cholesterol-free,[1]; [19],0.9968
same,Complete,[1]; [20],0.96
same,Cholesterol-free media + simvastatin (0.04 μM),[2]; [6],1.178
same,Complete Media,[2]; [7],1.151
same,Difference,[2]; [23],−0.03
Cc1cc(NS(=O)(=O)c2ccc(N)cc2)nc(C)n1 [Sulfisomidin],Difference,[1]; [17],−0.21
same,Cholesterol-free,[1]; [10],1.055
same,Complete,"[1]; NCI-H292 cells, complete media",0.8471
same,Cholesterol-free media + simvastatin (0.04 μM),[2]; [26],1.147
same,Complete Media,[2]; [27],0.7862
same,Difference,[2]; [18],−0.36
O=S(=O)([O-])c1cc(O)ccc1O.O=S(=O)([O-])c1cc(O)ccc1O.[Ca+2] [Calcium dobesilate],Cholesterol-free,[1]; [19],1.325
same,Complete,[1]; [20],1.418
same,Difference,"[1]; complete vs cholesterol-free media, […]",0.09
same,Cholesterol-free media + simvastatin (0.04 μM),[2]; [14],1.427
same,Complete Media,[2]; [15],1.218
same,Difference,[2]; [18],−0.21
CC(C(=O)O)c1ccc2c(c1)Cc1cccnc1O2 (centres unmarked) [Pranoprofen],Cholesterol-free,[1]; [19],0.6134
same,Complete,[1]; [20],1.137
same,Difference,[1]; [21],0.52
same,Cholesterol-free media + simvastatin (0.04 μM),[2]; [26],1.474
same,Complete Media,[2]; [27],1.136
same,Difference,[2]; [16],−0.34
Cl.Cl.[O-][S+]1c2ccccc2N=C(N2CCN(CCOCCO)CC2)c2ccccc21 (centres unmarked) [Quetiapine sulfoxide (dihydrochloride)],Cholesterol-free,[1]; [10],1.151
same,Complete,"[1]; NCI-H292 cells, complete media",0.7759
same,Difference,[1]; [25],−0.38
same,Cholesterol-free media + simvastatin (0.04 μM),[2]; [22],1.184
same,Complete Media,[2]; [5],1.082
same,Difference,[2]; [16],−0.10
CC(C)(Oc1ccc(Cl)cc1)C(=O)O [Clofibric acid],Difference,[1]; [3],−0.18
same,Cholesterol-free,[1]; [4],0.9932
same,Complete,[1]; [5],0.8121
same,Cholesterol-free media + simvastatin (0.04 μM),[2]; [11],1.015
same,Complete Media,[2]; [12],1.071
same,Difference,[2]; [13],0.06
CCCCN1CCCC[C@H]1C(=O)Nc1c(C)cccc1C [Levobupivacaine (hydrochloride)],Cholesterol-free,[1]; [10],1.298
same,Complete,"[1]; NCI-H292 cells, complete media",0.9683
same,Difference,[1]; [25],−0.33
same,Cholesterol-free media + simvastatin (0.04 μM),[2]; [11],0.871
same,Complete Media,[2]; [12],0.9154
same,Difference,[2]; [13],0.04
Setiptiline (maleate),Difference,[1]; [9],0.02
same,Cholesterol-free,[1]; [19],0.9606
same,Complete,[1]; [20],0.9832
same,Cholesterol-free media + simvastatin (0.04 μM),[2]; [14],1.022
same,Complete Media,[2]; [15],0.7709
same,Difference,[2]; [16],−0.25
